These results are taken from ChEMBL document CHEMBL1131781, “Design and synthesis of diaminopyrrolidinone inhibitors of human osteoclast cathepsin K” (Bioorg Med Chem Lett, 1999).

The experiment addresses T1, Cathepsin K (Homo sapiens, UniProt P43235).
T1 sequence (P43235 whole entry): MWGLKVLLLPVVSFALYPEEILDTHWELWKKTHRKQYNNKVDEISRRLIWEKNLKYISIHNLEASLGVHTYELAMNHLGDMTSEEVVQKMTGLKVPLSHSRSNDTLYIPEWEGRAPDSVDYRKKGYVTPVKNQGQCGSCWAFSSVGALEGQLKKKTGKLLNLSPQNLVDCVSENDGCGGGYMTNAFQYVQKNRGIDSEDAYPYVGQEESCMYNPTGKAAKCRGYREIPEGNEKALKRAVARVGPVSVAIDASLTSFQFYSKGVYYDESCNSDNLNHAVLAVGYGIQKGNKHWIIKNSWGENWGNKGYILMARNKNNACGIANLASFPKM
Description: Compound was tested for its inhibitory activity against human osteoclast cathepsin K.
For `CC(C)C[C@H](NC(=O)OCc1ccccc1)c1nc(C(=O)NN2CC[C@@](CC(C)C)(NC(=O)OCc3ccccc3)C2=O)cs1`, the affinity, expressed as Ki, was 33 nM.

`CC(C)C[C@H](NC(=O)OCc1ccccc1)c1nc(C(=O)NN2CC[C@@H](NC(=O)OCc3ccccc3)C2=O)cs1`: the Ki was 330 nM.

`CC(C)C[C@H](NC(=O)OCc1ccccc1)C(=O)NNC(=O)c1csc([C@H](CC(C)C)NC(=O)OCc2ccccc2)n1` came in with a Ki of 10 nM.
